# Experimental data as given in patent publication US20260191968A1, “PROTAC DEGRADERS OF MLLT1 AND/OR MLLT3” (DARK BLUE THERAPEUTICS LTD, priority 2024, published 2026).
# Molecular target: T1, MLLT1 (Homo sapiens, UniProt Q03111)
# T1 construct: host or cells: MV4-11
# T1 sequence (Q03111 1-559): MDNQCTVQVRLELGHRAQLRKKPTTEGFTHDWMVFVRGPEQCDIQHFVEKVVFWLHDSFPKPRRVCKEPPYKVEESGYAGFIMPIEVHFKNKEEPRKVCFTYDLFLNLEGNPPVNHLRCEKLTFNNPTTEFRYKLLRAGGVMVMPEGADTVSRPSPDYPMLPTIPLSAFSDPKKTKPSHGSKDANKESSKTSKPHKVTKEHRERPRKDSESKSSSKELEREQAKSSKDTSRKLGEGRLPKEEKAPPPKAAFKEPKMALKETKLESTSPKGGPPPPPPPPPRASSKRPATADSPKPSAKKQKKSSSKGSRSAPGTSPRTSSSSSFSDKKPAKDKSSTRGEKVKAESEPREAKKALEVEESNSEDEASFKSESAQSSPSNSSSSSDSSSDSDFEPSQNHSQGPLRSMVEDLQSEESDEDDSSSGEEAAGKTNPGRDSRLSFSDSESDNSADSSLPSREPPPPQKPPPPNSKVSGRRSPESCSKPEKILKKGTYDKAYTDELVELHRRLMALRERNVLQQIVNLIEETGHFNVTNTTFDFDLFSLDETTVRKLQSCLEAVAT
# Experiment: MLLT1 degradation assay in MV4-11 cells (JESS chemiluminescent detection), three concentrations, 24 h
# Assay type: cell-based
# Conditions: with respect to DMSO control
# Method: MLLT1 degradation efficacy of compounds were tested in an automated chemiluminescent detection system (JESS, Cat #004-650). […] 10 mM DMSO stocks were prepared, and cells were treated with three concentrations of test compounds viz. 1000, 100 and 10 nM at a final DMSO concentration of 0.1% and incubated for 24 h at 37° C., 5% CO2. […] Post run, data were analysed using “Compass for SW” software for chemiluminescent detection. The peak area for each band was used for the calculation of MLLT1 degradation with respect to DMSO control. Data is shown as “MLLT1% degradation”.
SMILES,MLLT1% Degradation @ 0.01 μM,MLLT1% Degradation @ 0.1 μM,MLLT1% Degradation @ 1 μM
"CN1CCC[C@@H]1c1cc2cnc(NC(=O)c3ccc(N4CCC(CCCCC#Cc5cccc6c5CN(C5CCC(=O)NC5=O)C6=O)CC4)nc3)cc2[nH]1 (stereo partly drawn) [Example 188, 6-(4-(6-(2-(2,6-dioxopiperidin-3-yl)-1-oxoisoindolin-4-yl)hex-5-yn-1-yl)piperidin-1-yl)-N-(2-((R)-1-methylpyrrolidin-2-yl)-1H-pyrrolo[3,2-c]pyridin-6-yl)nicotinamide]",C (Category C: 25% ≤ C < 50% degradation),B (Category B: 50% ≤ B < 75% degradation),B (Category B: 50% ≤ B < 75% degradation)
"CN1CCC[C@@H]1c1cc2cnc(NC(=O)c3ccc(N4CCC(CC#Cc5ccc6c(c5)CN(C5CCC(=O)NC5=O)C6=O)CC4)nc3)cc2[nH]1 (stereo partly drawn) [Example 224, 6-(4-(3-(2-(2,6-dioxopiperidin-3-yl)-1-oxoisoindolin-5-yl)prop-2-yn-1-yl)piperidin-1-yl)-N-(2-((R)-1-methylpyrrolidin-2-yl)-1H-pyrrolo[3,2-c]pyridin-6-yl)nicotinamide]",C (Category C: 25% ≤ C < 50% degradation),C (Category C: 25% ≤ C < 50% degradation),C (Category C: 25% ≤ C < 50% degradation)
"CN1CCC[C@@H]1c1cc2cnc(NC(=O)c3ccc(CCCN4CCN(c5cccc6c5C(=O)N(C5CCC(=O)NC5=O)C6=O)CC4)cc3)cc2[nH]1 (stereo partly drawn) [Example 130, 4-(3-(4-(2-(2,6-dioxopiperidin-3-yl)-1,3-dioxoisoindolin-4-yl)piperazin-1-yl)propyl)-N-(2-((R)-1-methylpyrrolidin-2-yl)-1H-pyrrolo[3,2-c]pyridin-6-yl)benzamide]",B (Category B: 50% ≤ B < 75% degradation),A (Category A: A ≥ 75% degradation),A (Category A: A ≥ 75% degradation)
"CN1CCC[C@@H]1c1cc2cnc(NC(=O)c3ccc(OC4CN(CCC5CCN(c6ccc7c(c6)C(=O)N(C6CCC(=O)NC6=O)C7=O)CC5)C4)cc3)cc2[nH]1 (stereo partly drawn) [Example 227, 4-((1-(2-(1-(2-(2,6-dioxopiperidin-3-yl)-1,3-dioxoisoindolin-5-yl)piperidin-4-yl)ethyl)azetidin-3-yl)oxy)-N-(2-((R)-1-methylpyrrolidin-2-yl)-1H-pyrrolo[3,2-c]pyridin-6-yl)benzamide]",D (Category D: D < 25% degradation),C (Category C: 25% ≤ C < 50% degradation),C (Category C: 25% ≤ C < 50% degradation)
"CN1CCC[C@@H]1c1cc2cnc(NC(=O)c3ccc(N4CCC(OCC5CCN(c6cccc7c6C(=O)N(C6CCC(=O)NC6=O)C7=O)CC5)CC4)nc3)cc2[nH]1 (stereo partly drawn) [Example 18, 6-(4-((1-(2-(2,6-dioxopiperidin-3-yl)-1,3-dioxoisoindolin-4-yl)piperidin-4-yl)methoxy)piperidin-1-yl)-N-(2-((R)-1-methylpyrrolidin-2-yl)-1H-pyrrolo[3,2-c]pyridin-6-yl)nicotinamide]",B (Category B: 50% ≤ B < 75% degradation),A (Category A: A ≥ 75% degradation),A (Category A: A ≥ 75% degradation)
"CN1CCC[C@@H]1c1cc2cnc(NC(=O)c3ccc(N4CCC(CN5CCN(c6cccc7c6CN(C6CCC(=O)NC6=O)C7=O)CC5)CC4)cc3)cc2[nH]1 (stereo partly drawn) [Example 92, 4-(4-((4-(2-(2,6-dioxopiperidin-3-yl)-1-oxoisoindolin-4-yl)piperazin-1-yl)methyl)piperidin-1-yl)-N-(2-((R)-1-methylpyrrolidin-2-yl)-1H-pyrrolo[3,2-c]pyridin-6-yl)benzamide]",B (Category B: 50% ≤ B < 75% degradation),B (Category B: 50% ≤ B < 75% degradation),B (Category B: 50% ≤ B < 75% degradation)
"CN1CCC[C@@H]1c1[nH]c2cc(NC(=O)c3ccc(CCCCC#Cc4cccc5c4CN(C4CCC(=O)NC4=O)C5=O)nc3)ncc2c1Cl (stereo partly drawn) [Example 71, N-(3-chloro-2-((R)-1-methylpyrrolidin-2-yl)-1H-pyrrolo[3,2-c]pyridin-6-yl)-6-(6-(2-(2,6-dioxopiperidin-3-yl)-1-oxoisoindolin-4-yl)hex-5-yn-1-yl) nicotinamide]",A (Category A: A ≥ 75% degradation),A (Category A: A ≥ 75% degradation),B (Category B: 50% ≤ B < 75% degradation)
"CN1CCC[C@@H]1c1cc2cnc(NC(=O)c3ccc(OCCC4CCN(c5cccc6c5CN(C5CCC(=O)NC5=O)C6=O)CC4)cc3)cc2[nH]1 (stereo in doubt) [Example 81, 4-(2-(1-(2-((rel-R)-2,6-dioxopiperidin-3-yl)-1-oxoisoindolin-4-yl)piperidin-4-yl)ethoxy)-N-(2-((R)-1-methylpyrrolidin-2-yl)-1H-pyrrolo[3,2-c]pyridin-6-yl)benzamide]",A (Category A: A ≥ 75% degradation),A (Category A: A ≥ 75% degradation),A (Category A: A ≥ 75% degradation)
"CN1CCC[C@@H]1c1cc2cnc(NC(=O)c3ccc(CCCC#Cc4cccc5c4C(=O)N(C4CCC(=O)NC4=O)C5=O)cc3)cc2[nH]1 (stereo partly drawn) [Example 110, 4-(5-(2-(2,6-dioxopiperidin-3-yl)-1,3-dioxoisoindolin-4-yl)pent-4-yn-1-yl)-N-(2-((R)-1-methylpyrrolidin-2-yl)-1H-pyrrolo[3,2-c]pyridin-6-yl)benzamide]",C (Category C: 25% ≤ C < 50% degradation),A (Category A: A ≥ 75% degradation),A (Category A: A ≥ 75% degradation)
"CN1CCC[C@@H]1c1cc2cnc(NC(=O)c3ccc(N4CCC(N5CCN(c6cccc7c6C(=O)N(C6CCC(=O)NC6=O)C7=O)CC5)CC4)nc3)cc2[nH]1 (stereo partly drawn) [Example 64, 6-(4-(4-(2-(2,6-dioxopiperidin-3-yl)-1,3-dioxoisoindolin-4-yl)piperazin-1-yl)piperidin-1-yl)-N-(2-((R)-1-methylpyrrolidin-2-yl)-1H-pyrrolo[3,2-c]pyridin-6-yl)nicotinamide]",B (Category B: 50% ≤ B < 75% degradation),B (Category B: 50% ≤ B < 75% degradation),A (Category A: A ≥ 75% degradation)
"Cc1cc(OC2CCN(c3ccc(C(=O)Nc4cc5[nH]c([C@H]6CCCN6C)cc5cn4)c(F)c3)CC2)ccc1-c1cccc2c1CN(C1CCC(=O)NC1=O)C2=O (stereo partly drawn) [Example 203, 4-(4-(4-(2-(2,6-dioxopiperidin-3-yl)-1-oxoisoindolin-4-yl)-3-methylphenoxy)piperidin-1-yl)-2-fluoro-N-(2-((R)-1-methylpyrrolidin-2-yl)-1H-pyrrolo[3,2-c]pyridin-6-yl)benzamide]",C (Category C: 25% ≤ C < 50% degradation),C (Category C: 25% ≤ C < 50% degradation),B (Category B: 50% ≤ B < 75% degradation)
